The values below come from ChEMBL document CHEMBL4390649, “Fine-tuning the neuroprotective and blood-brain barrier permeability profile of multi-target agents designed to prevent progressive mitochondrial dysfunction” (Eur J Med Chem, 2019).

pIC50: −log10 of the molar value. Active and inactive are the calls of the source. The rule behind the calls is not given here.

Usually pIC50 stands for −log10 of the IC50, conventionally taken in molar units.

For one series, the system named is SH-SY5Y. Kind of series: Neuroprotective activity against H2O2-induced oxidative damage in human SH-SY5Y cells assessed as reduction in cell damage at 50 uM pretreated for 24 hrs followed by H2O2 challenge measured after 30 mins by MTT assay relative to control. The arrangement: scale not given: the % may be the effect or the level left. It counts as functional.
Settings: not given
As for `CS(=O)(=O)[O-].O=C(CCc1cc(O)c(O)c(O)c1)NCCCCCCCCCC[P+](c1ccccc1)(c1ccccc1)c1ccccc1`, the Activity is on record as 70.8 - 83.3%.
Still for that read-out and setting: the same measure for `CS(=O)(=O)[O-].O=C(Cc1cc(O)c(O)c(O)c1)NCCCCCC[P+](c1ccccc1)(c1ccccc1)c1ccccc1`: “inactive”.

System in a further series: not listed separately
Description: Antioxidant activity assessed as ABTS radical scavenging activity measured after 15 mins by UV-Visible spectrophotometric based assay. It counts as functional.
Settings: not given
As for `CS(=O)(=O)[O-].O=C(CCc1cc(O)c(O)c(O)c1)NCCCCCCCCCC[P+](c1ccccc1)(c1ccccc1)c1ccccc1`, the pIC50 was 4.92.
The same measure, in the same setting: the same measure for `CS(=O)(=O)[O-].O=C(Cc1cc(O)c(O)c(O)c1)NCCCCCC[P+](c1ccccc1)(c1ccccc1)c1ccccc1`: 5.02.

System in the next series: not listed separately
Kind of series: Cytotoxicity against human CMEC/D3 cells assessed as reduction in cell viability at 50 to 100 uM incubated for 4 hrs by MTT assay relative to control. It counts as cell-based. As to conditions: hcmec/d3, 4 h. On the technique in general: Tetrazolium dyes change colour on reduction, which living cells bring about.
For the compound `CS(=O)(=O)[O-].O=C(CCc1cc(O)c(O)c(O)c1)NCCCCCCCCCC[P+](c1ccccc1)(c1ccccc1)c1ccccc1`, the Activity result is on record as “Non-Toxic”.
The same measure, in the same setting: the result for `CS(=O)(=O)[O-].O=C(Cc1cc(O)c(O)c(O)c1)NCCCCCC[P+](c1ccccc1)(c1ccccc1)c1ccccc1` reads “Non-Toxic”.

System in the next series: not listed separately
Description: Cytotoxicity against human SH-SY5Y cells assessed as cell metabolic activity at 50 uM incubated for 24 hrs by MTT assay relative to control. It counts as ADME, cell-based. As to conditions: read-out: Activity.
In the case of `CS(=O)(=O)[O-].O=C(CCc1cc(O)c(O)c(O)c1)NCCCCCCCCCC[P+](c1ccccc1)(c1ccccc1)c1ccccc1`, the viability at 24 h, 50 µM was 96.3%.
Still for that read-out and setting: the result for `CS(=O)(=O)[O-].O=C(Cc1cc(O)c(O)c(O)c1)NCCCCCC[P+](c1ccccc1)(c1ccccc1)c1ccccc1` reads 93.7%.

The next series deals with SH-SY5Y. Description: Neuroprotective activity against TBHP-induced oxidative damage in human SH-SY5Y cells assessed as increase in cell viability at 10 uM pretreated for 24 hrs followed by TBHP stimulation measured after 4 hrs by MTT assay relative to control.
Settings: not given
It counts as functional, cell-based.
As to `CS(=O)(=O)[O-].O=C(CCc1cc(O)c(O)c(O)c1)NCCCCCCCCCC[P+](c1ccccc1)(c1ccccc1)c1ccccc1`, the outcome was inactive.
Same read-out and setting: the same measure for `CS(=O)(=O)[O-].O=C(Cc1cc(O)c(O)c(O)c1)NCCCCCC[P+](c1ccccc1)(c1ccccc1)c1ccccc1`: “inactive”.

System in a further series: not listed separately
Description: Antioxidant activity assessed as DPPH radical scavenging activity measured after 45 mins by UV-Visible spectrophotometric based assay. It counts as functional.
Settings: not given
On the technique in general: Loss of DPPH colour is used to gauge radical scavenging.
`CS(=O)(=O)[O-].O=C(CCc1cc(O)c(O)c(O)c1)NCCCCCCCCCC[P+](c1ccccc1)(c1ccccc1)c1ccccc1`: the pIC50 is 4.63.
The same measure, in the same setting: the result for `CS(=O)(=O)[O-].O=C(Cc1cc(O)c(O)c(O)c1)NCCCCCC[P+](c1ccccc1)(c1ccccc1)c1ccccc1` reads 4.63.

System in a further series: not listed separately
Kind of series: Cytotoxicity against human HepG2 cells assessed as cell metabolic activity at 50 uM incubated for 48 hrs by resazurin assay relative to control. As to conditions: read-out: Activity. It counts as ADME, cell-based. For orientation: Alamar Blue is a resazurin reagent that responds to reducing activity.
For the compound `CS(=O)(=O)[O-].O=C(CCc1cc(O)c(O)c(O)c1)NCCCCCCCCCC[P+](c1ccccc1)(c1ccccc1)c1ccccc1`, the viability at 48 h, 50 µM was 108%.
Same read-out and setting: the result for `CS(=O)(=O)[O-].O=C(Cc1cc(O)c(O)c(O)c1)NCCCCCC[P+](c1ccccc1)(c1ccccc1)c1ccccc1` reads 87.7%.

System in the next series: not listed separately
Kind of series: Electrochemical behavior of the compound assessed as redox potential corrected toward saturated Ag/AgCl reference electrode by differential pulse voltammetry.
Settings: not given
As to `CS(=O)(=O)[O-].O=C(CCc1cc(O)c(O)c(O)c1)NCCCCCCCCCC[P+](c1ccccc1)(c1ccccc1)c1ccccc1`, the Activity is 537 mV.
With `CS(=O)(=O)[O-].O=C(Cc1cc(O)c(O)c(O)c1)NCCCCCC[P+](c1ccccc1)(c1ccccc1)c1ccccc1`, the Activity came to 469 mV.

Another series has as its system SH-SY5Y. Kind of series: Neuroprotective activity against 6-OHDA-induced toxicity in human SH-SY5Y cells assessed as reduction in cell damage at 10 to 50 uM pretreated for 24 hrs followed by 6-OHDA challenge and measured after 24 hrs by MTT assay relative to control. It counts as functional. Also noted: scale not given: the % may be the effect or the level left.
Settings: not given
Consider `CS(=O)(=O)[O-].O=C(CCc1cc(O)c(O)c(O)c1)NCCCCCCCCCC[P+](c1ccccc1)(c1ccccc1)c1ccccc1`, for which the Activity was 66.5 - 70.2%.
Regarding `CS(=O)(=O)[O-].O=C(Cc1cc(O)c(O)c(O)c1)NCCCCCC[P+](c1ccccc1)(c1ccccc1)c1ccccc1`, the outcome was Active.

System in another series: not listed separately
Description: Cytotoxicity against human HepG2 cells assessed as cell metabolic activity at 10 uM incubated for 48 hrs by resazurin assay relative to control. It counts as ADME, cell-based. The note with it: read-out: Activity.
`CS(=O)(=O)[O-].O=C(CCc1cc(O)c(O)c(O)c1)NCCCCCCCCCC[P+](c1ccccc1)(c1ccccc1)c1ccccc1`: the viability at 48 h, 10 µM worked out at 106%.
On the same count and under the same terms, the same measure for `CS(=O)(=O)[O-].O=C(Cc1cc(O)c(O)c(O)c1)NCCCCCC[P+](c1ccccc1)(c1ccccc1)c1ccccc1`: 106%.

The next series has as its system SH-SY5Y. Description: Neuroprotective activity against TBHP-induced oxidative damage in human SH-SY5Y cells assessed as increase in cell viability at 50 uM pretreated for 24 hrs followed by TBHP stimulation measured after 4 hrs by MTT assay relative to control.
Settings: not given
It counts as functional.
For the compound `CS(=O)(=O)[O-].O=C(CCc1cc(O)c(O)c(O)c1)NCCCCCCCCCC[P+](c1ccccc1)(c1ccccc1)c1ccccc1`, the result was inactive.
The same measure, in the same setting: the same measure for `CS(=O)(=O)[O-].O=C(Cc1cc(O)c(O)c(O)c1)NCCCCCC[P+](c1ccccc1)(c1ccccc1)c1ccccc1`: “inactive”.

Another series relates to SH-SY5Y. Kind of series: Neuroprotective activity against H2O2-induced oxidative damage in human SH-SY5Y cells assessed as reduction in cell damage at 10 uM pretreated for 24 hrs followed by H2O2 challenge measured after 30 mins by MTT assay relative to control. The arrangement: scale not given: the % may be the effect or the level left. It counts as functional.
Settings: not given
Take `CS(=O)(=O)[O-].O=C(CCc1cc(O)c(O)c(O)c1)NCCCCCCCCCC[P+](c1ccccc1)(c1ccccc1)c1ccccc1`: the Activity is reported as 70.8 - 83.3%.
Same read-out and setting: the same measure for `CS(=O)(=O)[O-].O=C(Cc1cc(O)c(O)c(O)c1)NCCCCCC[P+](c1ccccc1)(c1ccccc1)c1ccccc1`: “inactive”.

System in the next series: not listed separately
Kind of series: Apparent permeability across apical to basolateral side in human CMEC/D3 cells at 100 uM incubated by UV-VIS spectroscopic method. It counts as ADME, cell-based. As to conditions: hcmec/d3, 100 µM, TDE = time-dependent effect.
Take `CS(=O)(=O)[O-].O=C(CCc1cc(O)c(O)c(O)c1)NCCCCCCCCCC[P+](c1ccccc1)(c1ccccc1)c1ccccc1`: the permeability entry was “Tde”.
Same read-out and setting: the result for `CS(=O)(=O)[O-].O=C(Cc1cc(O)c(O)c(O)c1)NCCCCCC[P+](c1ccccc1)(c1ccccc1)c1ccccc1` reads “Tde”.

System in a further series: not listed separately
Description: Cytotoxicity against human SH-SY5Y cells assessed as cell metabolic activity at 10 uM incubated for 24 hrs by MTT assay relative to control. It counts as ADME, cell-based. As to conditions: read-out: Activity.
On to `CS(=O)(=O)[O-].O=C(CCc1cc(O)c(O)c(O)c1)NCCCCCCCCCC[P+](c1ccccc1)(c1ccccc1)c1ccccc1`, for which the viability at 24 h, 10 µM came to 92.8%.
Still for that read-out and setting: the result for `CS(=O)(=O)[O-].O=C(Cc1cc(O)c(O)c(O)c1)NCCCCCC[P+](c1ccccc1)(c1ccccc1)c1ccccc1` reads 90.6%.

System in another series: not listed separately
Kind of series: Metal chelating activity assessed as compound-Fe2+ complex formation at 100 uM incubated for 10 mins by ferrozine spectrophotometric assay.
Settings: not given
Take `CS(=O)(=O)[O-].O=C(CCc1cc(O)c(O)c(O)c1)NCCCCCCCCCC[P+](c1ccccc1)(c1ccccc1)c1ccccc1`: the Activity was above 80%.
For the compound `CS(=O)(=O)[O-].O=C(Cc1cc(O)c(O)c(O)c1)NCCCCCC[P+](c1ccccc1)(c1ccccc1)c1ccccc1`, the Activity worked out at 95.3%.

System in the next series: not listed separately
Kind of series: Apparent permeability across apical to basolateral side in human CMEC/D3 cells at 100 uM incubated up to 180 mins by UV-VIS spectroscopic method. It counts as ADME, cell-based. The note with it: hcmec/d3, 3 h.
For `CS(=O)(=O)[O-].O=C(CCc1cc(O)c(O)c(O)c1)NCCCCCCCCCC[P+](c1ccccc1)(c1ccccc1)c1ccccc1`, the permeability was found to be 33.1%.
For `CS(=O)(=O)[O-].O=C(Cc1cc(O)c(O)c(O)c1)NCCCCCC[P+](c1ccccc1)(c1ccccc1)c1ccccc1`, the permeability came out at 65.4%.

The subject of a further series is SH-SY5Y. Kind of series: Induction of ROS generation in human SH-SY5Y cells at 50 uM incubated for 24 hrs by DCFH-DA probe based fluorescence assay relative to control.
Settings: not given
It counts as functional.
Consider `CS(=O)(=O)[O-].O=C(CCc1cc(O)c(O)c(O)c1)NCCCCCCCCCC[P+](c1ccccc1)(c1ccccc1)c1ccccc1`, for which the result was Active.
Regarding `CS(=O)(=O)[O-].O=C(Cc1cc(O)c(O)c(O)c1)NCCCCCC[P+](c1ccccc1)(c1ccccc1)c1ccccc1`, the result was Active.

System in another series: not listed separately
Description: Electrochemical behavior of the compound assessed as redox potential corrected toward saturated Ag/AgCl reference electrode by cyclic voltammetry.
Settings: not given
For `CS(=O)(=O)[O-].O=C(CCc1cc(O)c(O)c(O)c1)NCCCCCCCCCC[P+](c1ccccc1)(c1ccccc1)c1ccccc1`, the Activity came out at 12 mV.
Same read-out and setting: the same measure for `CS(=O)(=O)[O-].O=C(Cc1cc(O)c(O)c(O)c1)NCCCCCC[P+](c1ccccc1)(c1ccccc1)c1ccccc1`: 58 mV.
